Molecular target: T1, RhsF-CT (Chromobacterium violaceum, UniProt Q7NY44)
T1 construct: gene CV_1431; C-terminal toxin domain, residues 1393-1513, 14 kDa; His6-TEV tag, apparently kept
Type: biochemical

## NC(=O)c1ccc[n+]([C@@H]2O[C@H](COP(=O)(O)OP(=O)(O)OC[C@H]3O[C@@H](n4cnc5c(N)ncnc54)[C@H](O)[C@@H]3O)[C@@H](O)[C@H]2O)c1 [NAD^+]
  RNA ADP-ribosylation, TBE-urea gel and anti-ADP-ribose immunoblot: indicating that RhsF-CT can transfer ADP-ribose from NAD^+ to the RNA

— article PMC13324451 (The Journal of Biological Chemistry, 2026)
